Source: patent EP4800012A1, “COMPOUND ACTING AS PARP7 INHIBITOR” (Dovetree Medicines Unus, Inc., priority 2023, dated 2025)
pIC50: −log10 of the molar value. Where two headings read alike, the source gives them in different places.

Key:
[1] = target: T1, PARP7 (Homo sapiens, UniProt Q7Z3E1); test: Inhibition of the compound on PARP7 protein activity (ADP-ribosylation, chemiluminescence); type: biochemical
T1 construct: purchased BPS 80527
T1 sequence (Q7Z3E1 1-657): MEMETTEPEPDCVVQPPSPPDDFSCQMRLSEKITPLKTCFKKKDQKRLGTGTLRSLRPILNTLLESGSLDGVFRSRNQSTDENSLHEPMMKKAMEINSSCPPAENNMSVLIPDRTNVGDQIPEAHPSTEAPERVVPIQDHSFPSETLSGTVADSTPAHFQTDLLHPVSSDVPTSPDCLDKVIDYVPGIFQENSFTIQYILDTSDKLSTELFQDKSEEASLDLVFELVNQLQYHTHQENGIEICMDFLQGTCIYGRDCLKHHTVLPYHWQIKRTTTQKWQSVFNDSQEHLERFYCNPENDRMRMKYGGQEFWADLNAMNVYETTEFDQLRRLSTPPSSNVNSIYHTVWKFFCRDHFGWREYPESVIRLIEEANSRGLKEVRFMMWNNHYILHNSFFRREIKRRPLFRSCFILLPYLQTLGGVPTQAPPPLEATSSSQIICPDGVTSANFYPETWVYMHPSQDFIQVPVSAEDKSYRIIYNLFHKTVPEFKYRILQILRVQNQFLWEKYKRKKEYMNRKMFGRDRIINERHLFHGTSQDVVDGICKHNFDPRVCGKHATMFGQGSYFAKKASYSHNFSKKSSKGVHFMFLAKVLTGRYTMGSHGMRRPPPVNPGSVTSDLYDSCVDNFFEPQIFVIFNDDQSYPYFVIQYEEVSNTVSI

[2] = system: NCI-H1373 cells; test: Inhibition on NCI-H1373 cell proliferation (Cell-Titer-Glo); type: cell-based; conditions: Homo sapiens, 144 h; NCI-H1373 cells, incubation for 6 days, Cell-Titer-Glo; read-out: NCI-H1373 cell proliferation inhibition IC50
[3] = target: T1, PARP7; test: PARP7 TR-FRET binding inhibition (displacement of probe RBN011147)
Experimental: The ability of the compound to substitute the probe RBN011147 (Wigle et al., 2020, Cell Chemical Biology 27, 877-887) was tested by a TR-FRET method, and IC50 was calculated to evaluate the binding ability of the compound to PARP7. […]

[4] = target: PARP1 (Homo sapiens, UniProt P09874); test: PARP1 in vitro enzyme activity inhibition (chemiluminescence assay); type: biochemical
PARP1, sequence (P09874 whole entry, species assumed): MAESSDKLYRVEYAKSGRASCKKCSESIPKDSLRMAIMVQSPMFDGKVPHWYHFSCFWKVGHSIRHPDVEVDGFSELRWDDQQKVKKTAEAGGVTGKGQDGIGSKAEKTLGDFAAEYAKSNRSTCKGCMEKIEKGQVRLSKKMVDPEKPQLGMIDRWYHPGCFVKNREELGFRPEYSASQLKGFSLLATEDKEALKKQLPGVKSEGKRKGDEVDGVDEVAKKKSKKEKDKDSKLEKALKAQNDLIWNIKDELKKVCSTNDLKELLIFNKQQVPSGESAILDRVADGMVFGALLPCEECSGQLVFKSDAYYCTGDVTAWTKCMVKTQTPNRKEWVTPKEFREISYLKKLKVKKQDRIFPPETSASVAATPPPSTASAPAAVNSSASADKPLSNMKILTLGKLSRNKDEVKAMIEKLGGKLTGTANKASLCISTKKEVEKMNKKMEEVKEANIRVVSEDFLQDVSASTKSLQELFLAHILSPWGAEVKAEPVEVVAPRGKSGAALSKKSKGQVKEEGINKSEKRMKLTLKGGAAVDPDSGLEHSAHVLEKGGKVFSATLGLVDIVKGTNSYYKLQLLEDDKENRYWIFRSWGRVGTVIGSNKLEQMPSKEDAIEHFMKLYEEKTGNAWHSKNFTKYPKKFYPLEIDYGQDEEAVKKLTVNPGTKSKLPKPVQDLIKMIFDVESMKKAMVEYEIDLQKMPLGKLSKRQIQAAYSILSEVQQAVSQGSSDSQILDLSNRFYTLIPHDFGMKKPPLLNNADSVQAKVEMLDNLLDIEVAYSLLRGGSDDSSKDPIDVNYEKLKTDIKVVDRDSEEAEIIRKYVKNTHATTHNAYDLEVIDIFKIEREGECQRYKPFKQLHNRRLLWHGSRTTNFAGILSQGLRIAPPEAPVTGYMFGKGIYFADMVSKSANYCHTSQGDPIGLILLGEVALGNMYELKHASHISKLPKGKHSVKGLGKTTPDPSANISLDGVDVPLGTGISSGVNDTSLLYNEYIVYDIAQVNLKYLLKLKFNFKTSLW
Experimental: (§1) Following the method in test example 1, the IC50 value of the inhibition of each compound on PARP7 activity were detected and obtained. Reference was made to the method in test example 1, except that the 6.25 nM of PARP7 solution in the ribosylation reaction step was replaced with a 5 nM of PARP1 solution or a 5 nM of PARP2. Similar to the 6.25 nM of PARP7 solution, the 5 nM of PARP1 solution and 5 nM of PARP2 solution were also formulated and obtained by using 1× Assay buffer.

[5] = target: PARP2 (Homo sapiens, UniProt Q9UGN5); test: PARP2 in vitro enzyme activity inhibition (chemiluminescence assay); type: biochemical
PARP2, sequence (Q9UGN5 whole entry, species assumed): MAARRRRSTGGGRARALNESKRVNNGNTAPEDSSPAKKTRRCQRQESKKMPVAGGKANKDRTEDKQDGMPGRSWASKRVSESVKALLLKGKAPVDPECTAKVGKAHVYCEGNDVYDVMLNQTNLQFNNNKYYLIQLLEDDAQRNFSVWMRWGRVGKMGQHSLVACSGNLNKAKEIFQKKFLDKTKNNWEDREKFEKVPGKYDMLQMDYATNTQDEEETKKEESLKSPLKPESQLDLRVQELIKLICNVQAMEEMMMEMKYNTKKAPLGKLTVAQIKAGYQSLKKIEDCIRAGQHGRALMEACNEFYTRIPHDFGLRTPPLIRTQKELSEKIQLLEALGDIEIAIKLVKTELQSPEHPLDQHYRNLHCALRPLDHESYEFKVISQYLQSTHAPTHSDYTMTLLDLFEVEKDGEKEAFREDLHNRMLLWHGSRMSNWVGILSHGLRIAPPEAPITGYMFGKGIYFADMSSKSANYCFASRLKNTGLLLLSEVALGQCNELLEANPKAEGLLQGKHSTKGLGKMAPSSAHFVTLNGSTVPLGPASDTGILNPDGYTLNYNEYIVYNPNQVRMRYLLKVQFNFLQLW
Experimental: as §1

[6] = target: T1, PARP7; test: PARP7 in vitro enzyme activity inhibition (chemiluminescence assay, selectivity test); type: biochemical
Experimental: as §1

[7] = Histone H1 coated plate, Biotin-Labeled NAD+, 2 h at room temperature, chemiluminescence; read-out: PARP7 activity inhibition IC50
[8] = TR-FRET, Biotin-labeled probe RBN011147; read-out: PARP7 binding inhibition IC50
[9] = 5 nM of PARP1 solution, method of test example 1; read-out: PARP1 activity inhibition IC50
[10] = 5 nM of PARP2, method of test example 1; read-out: PARP2 activity inhibition IC50
[11] = 6.25 nM of PARP7 solution, method of test example 1; read-out: PARP7 activity inhibition IC50

Row | pIC50 [1, 7] | pIC50 [2] | pIC50 [3, 8] | pIC50 [4, 9] | pIC50 [5, 10] | pIC50 [6, 11] | Compound | pIC50 ([1]; read-out: PARP7 activity inhibition IC50; Histone H1 coated plate, Biotin-Labeled NAD+, 2 h at room temperature, chemiluminescence) | pIC50 ([3]; read-out: PARP7 binding inhibition IC50; TR-FRET, Biotin-labeled probe RBN011147) | pIC50 ([4]; read-out: PARP1 activity inhibition IC50; 5 nM of PARP1 solution, method of test example 1) | pIC50 ([5]; read-out: PARP2 activity inhibition IC50; 5 nM of PARP2, method of test example 1) | pIC50 ([6]; read-out: PARP7 activity inhibition IC50; 6.25 nM of PARP7 solution, method of test example 1)
1 | > 8.52 | 6.00 to 6.52 | > 8.00 | 7.00 to 7.52 | 8.00 to 8.52 | > 8.52 | CC(CCCNC(=O)c1cnc(-c2ncc(C(F)(F)F)cn2)cn1)Nc1cn[nH]c(=O)c1C(F)(F)F (stereo not drawn) [Example 4] | – | – | – | – | –
2 | > 8.52 | 5.52 to 6.00 | > 8.00 | 8.00 to 8.52 | 8.00 to 8.52 | > 8.52 | Cc1c(CCC(=O)Nc2ccc(-c3ncc(C(F)(F)F)cn3)cc2)c[nH]c(=O)c1C(F)(F)F [Example 10] | – | – | – | – | –
3 | > 8.52 | > 6.52 | > 8.00 | 7.52 to 8.00 | > 8.52 | > 8.52 | CC(CCCNC(=O)c1ccc(-c2ncc(C(F)(F)F)s2)cc1)Nc1cn[nH]c(=O)c1C(F)(F)F (stereo not drawn) [Example 17] | – | – | – | – | –
4 | > 8.52 | < 5.52 | > 8.00 | < 7.00 | < 7.00 | > 8.52 | O=C(CCc1c[nH]c(=O)c(C(F)(F)F)c1N1CC2(CCC2)C1)Nc1ccc(-c2ncc(C(F)(F)F)s2)cn1 [Example 69] | – | – | – | – | –
5 | > 8.52 | 6.00 to 6.52 | 7.52 to 8.00 | < 7.00 | 7.52 to 8.00 | > 8.52 | O=C(NCCCC(Nc1cn[nH]c(=O)c1C(F)(F)F)C(=O)N1CCCC1)c1ccc(-c2ncc(C(F)(F)F)cn2)cc1 (stereo not drawn) [Example 84] | – | – | – | – | –
6 | > 8.52 | 6.00 to 6.52 | > 8.00 | 7.00 to 7.52 | 8.00 to 8.52 | > 8.52 | CC1(C)CN(C(=O)C(CCCNC(=O)c2ccc(-c3ncc(C(F)(F)F)s3)cc2)Nc2cn[nH]c(=O)c2C(F)(F)F)C1 (stereo not drawn) [Example 85] | – | – | – | – | –
7 | > 8.52 | > 6.52 | > 8.00 | 7.52 to 8.00 | 8.00 to 8.52 | > 8.52 | O=C(NCCCC(Nc1cn[nH]c(=O)c1C(F)(F)F)C(=O)N1CCCC1)c1ccc(-c2ncc(C(F)(F)F)s2)cc1 (stereo not drawn) [Example 86] | – | – | – | – | –
8 | > 8.52 | > 6.52 | 7.52 to 8.00 | 7.00 to 7.52 | 7.52 to 8.00 | > 8.52 | O=C(NCCCC(Nc1cn[nH]c(=O)c1C(F)(F)F)C(=O)N1CC2(CCC2)C1)c1cnc(-c2ncc(C(F)(F)F)cn2)cn1 (stereo not drawn) [Example 87] | – | – | – | – | –
9 | > 8.52 | 6.00 to 6.52 | > 8.00 | 7.00 to 7.52 | 8.00 to 8.52 | > 8.52 | O=C(NCCCC(Nc1cn[nH]c(=O)c1C(F)(F)F)C(=O)N1CCOCC1)c1ccc(-c2ncc(C(F)(F)F)s2)cc1 (stereo not drawn) [Example 88] | – | – | – | – | –
10 | > 8.52 | 6.00 to 6.52 | > 8.00 | 7.00 to 7.52 | 7.52 to 8.00 | > 8.52 | O=C(NCCCC(Nc1cn[nH]c(=O)c1C(F)(F)F)C(=O)N1CCCC1)c1cnc(-c2ncc(C(F)(F)F)cn2)cn1 (stereo not drawn) [Example 89] | – | – | – | – | –
11 | > 8.52 | < 5.52 | 7.00 to 7.52 | 7.00 to 7.52 | 7.00 to 7.52 | > 8.52 | O=C(NCCCC(Nc1cn[nH]c(=O)c1C(F)(F)F)C(=O)N1CCOCC1)c1cnc(-c2ncc(C(F)(F)F)cn2)cn1 (stereo not drawn) [Example 90] | – | – | – | – | –
12 | 8.00 to 8.52 | < 5.52 | < 7.00 | < 7.00 | < 7.00 | 8.00 to 8.52 | O=C(NCCc1n[nH]c(=O)c(C(F)(F)F)c1N1CC2(CCC2)C1)c1cnc(-c2ncc(C(F)(F)F)cn2)cn1 [Example 166] | – | – | – | – | –
13 | 8.00 to 8.52 | < 5.52 | 7.52 to 8.00 | 7.00 to 7.52 | 8.00 to 8.52 | 8.00 to 8.52 | CC1(C)CN(C(=O)C(CCCNC(=O)c2cnc(-c3ncc(C(F)(F)F)cn3)cn2)Nc2cn[nH]c(=O)c2C(F)(F)F)C1 (stereo not drawn) [Example 174] | – | – | – | – | –

Row | Compound | pIC50 [1, 7] | pIC50 [2] | pIC50 [3, 8] | pIC50 [4, 9] | pIC50 [5, 10] | pIC50 [6, 11] | pIC50 ([1]; read-out: PARP7 activity inhibition IC50; Histone H1 coated plate, Biotin-Labeled NAD+, 2 h at room temperature, chemiluminescence) | pIC50 ([3]; read-out: PARP7 binding inhibition IC50; TR-FRET, Biotin-labeled probe RBN011147) | pIC50 ([4]; read-out: PARP1 activity inhibition IC50; 5 nM of PARP1 solution, method of test example 1) | pIC50 ([5]; read-out: PARP2 activity inhibition IC50; 5 nM of PARP2, method of test example 1) | pIC50 ([6]; read-out: PARP7 activity inhibition IC50; 6.25 nM of PARP7 solution, method of test example 1)
14 | O=C(CCc1c[nH]c(=O)c(C(F)(F)F)c1N1CC2(CCC2)C1)Nc1ccc(-c2ncc(C(F)(F)F)cn2)cn1 [Example 70] | – | < 5.52 | – | – | – | – | 8.00 to 8.52 | > 8.00 | < 7.00 | < 7.00 | 8.00 to 8.52
